From patent publication US9375000B2, “Pesticidal arylpyrrolidines” (Bayer Intellectual Property GmbH, priority 2011, dated 2016)
Where two headings read alike, the source gives them in different places.

How the values were obtained:
[1] = test system: Tobacco Cutworm (Spodoptera litura) Larvae; test: Tobacco cutworm (Spodoptera litura) larvae, sweet potato leaf dip test; assay type: in vivo; details: dead larvae after 7 days
Method in brief: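 Sweet potato leaves were dipped in DMF/emulsifier test solution at the set concentration and air-dried. Ten third-instar S. litura larvae were placed per dish at 25 °C, with fresh leaves added on days 2 and 4. Mortality was counted on day 7, given as % insecticidal activity averaged over two dishes.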

[2] = test system: Two-Spotted Spider Mite (Tetranychus urticae); test: Two-spotted spider mite (Tetranychus urticae) spray test on kidney bean; assay type: in vivo; details: after 7 days; for pest or weed control at 20 ppm: Tetranychus urticae, 168 h, read-out: acaricidal activity
Method in brief: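 Kidney bean plants at the two-leaf stage carried 50-100 adult mites and were sprayed one day later with compound in DMF/polyoxyethylene alkyl phenyl ether diluted in water. Ammonium salt and penetration enhancer at 1000 ppm were added if needed. Acaricidal activity (% mites killed) was scored after 7 days in a greenhouse.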

[3] = test system: Cucurbit Leaf Beetle (Aulacophora femoralis); test: Cucurbit leaf beetle (Aulacophora femoralis) cucumber leaf dip test; assay type: in vivo; details: after 7 days
Method in brief: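 Cucumber leaves dipped in compound formulated with DMF and polyoxyethylene alkyl phenyl ether, diluted in water, with ammonium salt or ammonium salt plus penetration enhancer at 1000 ppm added if necessary; dried leaves placed on sterilized soil with five second-instar larvae. Kept at 25° C; larval mortality counted after 7 days.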

[4] = log P by HPLC on reversed phase columns (EEC directive 79/831 Annex V.A8); assay type: physicochemical
Protocol: Calibration was done with not branched alkan2-ones (with 3 to 16 carbon atoms) with known log P-values (measurement of log P values using retention times with linear interpolation between successive alkanones). lambda-maX-values were determined using UV-spectra from 200 nm to 400 nm and the peak values of the chromatographic signals.

[5] = test system: Larvae of Spodoptera litura; test: Larvae of Spodoptera litura, method using artificial feeds; assay type: in vivo; details: artificial feed, after 7 days; for pest or weed control at 20 ppm: Spodoptera litura, 168 h, read-out: insecticidal activity (pesticidal ratio)
Method in brief: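 Compound formulated in dimethylformamide with polyoxyethylene alkyl phenyl ether emulsifier, water-diluted and poured onto artificial diet. Five 3rd-instar Spodoptera litura larvae per cup, held at 25° C and 50-60% humidity. Mortality after 7 days expressed as pesticidal ratio.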

Thrips palmi = Thrips palmi spray test (THRIPL); assay type: in vivo; details: after 6 days
Method in brief: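 Cucumber seedlings sprayed with compound formulated in DMF/polyoxyethylene alkyl phenyl ether and diluted in water, ammonium salt ± penetration enhancer at 1000 ppm added if needed. About 100 T. palmi eggs attached, plants held caged at 100% humidity, 23 °C. Percent activity scored from feeding damage after 6 days, 100 = no damage, 0 = as untreated.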

[6] = test system: Nymphs of the tick Amblyomma hebraeum; test: Amblyomma hebraeum test (AMBYHE), nymph immersion; assay type: in vivo; details: application rate 100 ppm; immersion one minute; 42 days
Protocol: Solvent: Dimethyl sulfoxide
(§1) To produce a suitable preparation of active compound, 10 mg of active compound are dissolved in 0.5 ml solvent, and the concentrate is diluted with water to the desired concentration. Nymphs of the tick Amblyomma hebraeum are placed in perforated plastic beakers and immersed in aqueous compound solution for one minute. Ticks are transferred to a filter paper in a petridish and incubated in a climate chamber for 42 days. After the specified period of time, mortality in % is determined. 100% means that all the ticks have been killed; 0% means that none of the ticks have been killed.

[7] = test system: green peach aphids (Myzus persicae); test: Myzus persicae spray test (MYZUPE); assay type: in vivo; details: after 6 days
Protocol: Unless not mentioned otherwise, the test solutions were prepared as follows:
Solvent: 3 parts by weight Dimethylformamide
Emulsifier: 1 part by weight Polyoxyethylene alkyl phenyl ether
In order to make an appropriate formulation of an active compound, 1 part by weight of the active compound is mixed with the above mentioned amount of solvent and emulsifier and the mixture is diluted with water to a prescribed concentration. Ammonium salt or ammonium salt and penetration enhancer in a dosage of 1000 ppm are added to the desired concentration if necessary.
1 day before treatment, green peach aphids (Myzus persicae) are inoculated onto the testing plants, about 50 heads per leaf, 100 for 1 pot. A paper label is placed on each pot. Solutions are sprayed directly onto both insects and plants. After drying, the pots are placed in the greenhouse at 20° C.-25° C. After 6 days mortality in % is determined. An insecticidal activity of 100% means that all aphids were killed, whereas an insecticidal activity of 0% means that no aphid was killed.

Ctenocephalides felis = test: Test against Ctenocephalides felis (CTECFE), blood feeding; assay type: in vivo; details: for activity (mortality): application rate 100 ppm in cattle blood, after 2 days; for mortality at 100 ppm: Ctenocephalides felis, in Bos taurus, 48 h, read-out: activity (mortality)
Protocol: (§2) Solvent: dimethyl sulfoxide
To produce a suitable preparation of active compound, 10 mg of active compound are dissolved in 0.5 ml solvent, and the concentrate is diluted with cattle blood to the desired concentration. Approximately 20 adult unfed (Ctenocepahlides felis) are placed in flea chambers. The blood chamber, sealed with parafilm on the bottom, are filled with cattle blood supplied with compound solution and placed on top of the flea chamber, so that the fleas are able to suck the blood. The blood chamber is heated to 37° C. whereas the flea chamber is kept at room temperature.
After 2 days mortality in % is determined. 100% means that all the fleas have been killed; 0% means that none of the fleas have been killed.

Musca domestica = test: Test against Musca domestica; assay type: in vivo; details: application rate 100 ppm; after 2 days
Protocol: as §2
To produce a suitable preparation of active compound, 10 mg of active compound are dissolved in 0.5 ml solvent, and the concentrate is diluted with water to the desired concentration. Prior to the assay, a piece of kitchen sponge is soaked with a mixture of sugar and compound solution and placed into a container. 10 adults (Musca domestica) are placed into the container and closed with a perforated lid. After 2 days mortality in % is determined. 100% means that all the flies have been killed; 0% means that none of the flies have been killed.

[8] = test system: adult engorged female Boophilus microplus ticks; test: Test against Boophilus microplus (dip); assay type: in vivo; details: Rhipicephalus microplus, 168 h, read-out: activity (mortality)
Protocol: as §2
as §1, with “Eight to ten adult engorged female Boophilus microplus ticks” for “Nymphs of the tick Amblyomma hebraeum”, “plastic tray. Egg deposition of fertile eggs is monitored after.” for “petridish and incubated in a climate chamber for 42 days.”, “7 days” for “the specified period of time,”

[9] = test system: Lucilia cuprina 1st instar larvae; test: Test against Lucilia cuprina larvae; assay type: in vivo; details: 48 h, read-out: activity (larval mortality)
Protocol: as §2
10 mg active compound are dissolve in 0.5 mL dimethyl sulfoxide. Serial dilutions are made to obtain the desired rates.
Approximately 20 Lucilia cuprina 1st instar larvae are transferred into a test tube containing 1 cm^3 of minced horse meat and 0.5 ml aqueous dilution of test compound. After 48 hrs percentage of larval mortality are recorded. 100% efficacy=all larvae are killed, […].

[10] = active compound concentration 4 ppm
[11] = active compound concentration 20 ppm
[12] = active compound concentration 100 ppm

Row | Compound | insecticidal activity [1, 10] | acaricidal activity [2, 10] | insecticidal activity [3, 11] | insecticidal activity [3, 10] | insecticidal activity (pesticidal ratio) [5, 10] | insecticidal activity (by feeding damage degree) (Thrips palmi; [11]) | activity (mortality) [6] | other results
1 | O=C(NCc1ccc(N2CCC(c3cc(Cl)cc(Cl)c3)(C(F)(F)F)C2O)cc1F)C1CC1 (mixture of isomers) [A1-99] | 100% | 90% | 100% |  |  |  |  | log P [4]: 3.47
2 | COCCC(=O)NCc1ccc(N2CCC(c3cc(C(F)(F)F)cc(C(F)(F)F)c3)(C(F)(F)F)C2O)nc1Br (mixture of isomers) [A3-162] |  |  |  |  |  |  |  | insecticidal activity [1, 11]: 100%; acaricidal activity [2, 11]: 90%; logP [4]: 3.71
3 | O=C(NCc1ccc(N2CCC(c3ccc(F)c(C(F)(F)F)c3)(C(F)(F)F)C2O)nc1C(F)(F)F)C1CC1 (mixture of isomers) [A3-236] |  | 100% | 100% | 100% | 100% | 98% | 100% | insecticidal activity (pesticidal ratio) [5, 11]: 100%
4 | CCC(=O)NCc1ccc(N2CCC(c3cc(F)cc(C(F)(F)F)c3)(C(F)(F)F)C2O)nc1C(F)(F)F (mixture of isomers) [A3-244] |  | 90% | 100% | 100% | 100% |  | 100% | insecticidal activity (pesticidal ratio) [5, 11]: 100%
5 | O=C(NCc1ccc(N2CCC(c3cc(F)cc(C(F)(F)F)c3)(C(F)(F)F)C2O)nc1C(F)(F)F)C1CC1 (mixture of isomers) [A3-247] |  | 100% | 100% | 100% | 100% |  | 100% | acaricidal activity [2, 11]: 100%; insecticidal activity (pesticidal ratio) [5, 11]: 100%; insecticidal activity (mortality) [7, 11]: 100%; activity (mortality) (Ctenocephalides felis): 95%
6 | O=C(CC(F)(F)F)NCc1ccc(N2CCC(c3cc(Cl)cc(C(F)(F)F)c3)(C(F)(F)F)C2O)nc1C(F)(F)F (racemic) [A3-271] |  | 100% | 100% | 100% | 100% | 98% | 100% | acaricidal activity [2, 11]: 100%; insecticidal activity (pesticidal ratio) [5, 11]: 100%
7 | O=C(NCc1ccc(N2CCC(c3cc(Cl)c(Cl)c(Cl)c3)(C(F)(F)F)C2O)cc1Cl)C1CC1 (stereo not shown) [A1-16] |  | 100% |  | 100% | 100% |  |  | insecticidal activity (mortality) [7, 12]: 100%; insecticidal activity (by feeding damage degree) (Thrips palmi; [12]): 98%; activity (mortality) (Ctenocephalides felis): 90%; activity (mortality) (Musca domestica): 80%
8 | CCC(=O)NCc1ccc(N2CCC(c3cc(Cl)cc(Cl)c3)(C(F)(F)F)C2O)cc1C(F)(F)F (stereo not shown) [A1-35, N-{4-[3-(3,5-dichlorophenyl)-2-hydroxy-3-(trifluoromethyl)pyrrolidin-1-yl]-2-(trifluoromethyl)benzyl}propanamide] |  |  |  |  |  |  |  | pest or weed control at 20 ppm [2, 11]: 100%; pest or weed control at 20 ppm ([3]; Aulacophora, foliar, 168 h, active compound concentration 20 ppm, read-out: insecticidal activity): 100%; pest or weed control at 20 ppm [5, 11]: 100%; mortality at 20 ppm [8]: 100%; mortality at 100 ppm (Ctenocephalides felis): 100%; mortality at 100 ppm [9]: 100%
9 | CN(C)C(=O)NCc1ccc(N2CCC(c3cc(Cl)cc(Cl)c3)(C(F)(F)F)C2O)cc1C(F)(F)F (stereo not shown) [A1-368] |  |  |  |  |  |  |  | acaricidal activity [2, 12]: 100%; log P ([4]; HPLC on reversed phase columns): 3.81
10 | CCNC(=O)NCc1ccc(N2CCC(c3cc(Cl)cc(Cl)c3)(C(F)(F)F)C2O)cc1C(F)(F)F (stereo not shown) [A1-369] | 100% |  |  |  |  |  |  | acaricidal activity [2, 12]: 100%; log P ([4]; HPLC on reversed phase columns): 3.73
11 | O=C(NCc1ccc(N2CCC(c3cc(C(F)(F)F)cc(C(F)(F)F)c3)(C(F)(F)F)C2O)nc1Cl)C1CC1 (stereo not shown) [A3-148] |  |  |  | 100% | 100% |  |  | insecticidal activity (by feeding damage degree) (Thrips palmi; [12]): 90%; logP [4]: 3.96
12 | O=C(NCc1cnc(N2CCC(c3cc(Cl)c(F)c(Cl)c3)(C(F)(F)F)C2O)nc1C(F)(F)F)C1CC1 (stereo not shown) [A4-104] | 100% | 100% | 100% |  |  | 98% | 100% | 
13 | O=C(NCc1cnc(N2CCC(c3cc(Cl)c(F)c(Cl)c3F)(C(F)(F)F)C2O)nc1C(F)(F)F)C1CC1 (stereo not shown) [A4-115] | 100% | 100% | 100% |  |  | 98% | 100% | insecticidal activity (mortality) [7, 11]: 100%; activity (mortality) (Ctenocephalides felis): 90%
14 | O=C(NCc1cnc(N2CCC(c3cc(Cl)c(F)c(Cl)c3F)(C(F)(F)F)C2O)cc1C(F)(F)F)C1CC1 (stereo not shown) [A5-82] | 100% | 100% | 100% |  |  | 90% | 100% | activity (mortality) (Ctenocephalides felis): 95%
15 | CCC(=O)NCc1ccc(N2CC(c3cc(Cl)c(Cl)c(Cl)c3)(C(F)(F)F)CC2=O)cc1C(F)(F)F (stereo not shown) [C1-46, N-{4-[2-oxo-4-(3,4,5-trichlorophenyl)-4-(trifluoromethyl)pyrrolidin-1-yl]-2-(trifluoromethyl)benzyl}propanamide] |  |  |  |  |  |  |  | insecticidal activity [1, 11]: 100%; pest or weed control at 20 ppm [2, 11]: 100%; pest or weed control at 20 ppm [5, 11]: 100%; mortality at 100 ppm (Ctenocephalides felis): 100%; mortality at 100 ppm [9]: 100%
